Source: article PMC13586173, “Synthetic cannabinoid receptor agonists inhibit the cardiac voltage-gated potassium channel hERG” (Acta Pharmacologica Sinica, 2026)
pEC50, pIC50: −log10 of the molar value. Where two headings read alike, the source gives them in different places.

Experiments:
hERG (KV11.1) = hERG (KV11.1) (Homo sapiens, UniProt Q12809); assay: Automated planar patch-clamp (APC, QPatch II 48), voltage-ladder protocol, CHO cells stably expressing human hERG; conditions: for effect on Gmax of hERG (in words): APC concentration-response, 1.11 to 30 µM; for hERG channel Efficacy (max reduction in Gmax) Gmin: 0 = complete reduction
hERG (KV11.1), sequence (Q12809 whole entry): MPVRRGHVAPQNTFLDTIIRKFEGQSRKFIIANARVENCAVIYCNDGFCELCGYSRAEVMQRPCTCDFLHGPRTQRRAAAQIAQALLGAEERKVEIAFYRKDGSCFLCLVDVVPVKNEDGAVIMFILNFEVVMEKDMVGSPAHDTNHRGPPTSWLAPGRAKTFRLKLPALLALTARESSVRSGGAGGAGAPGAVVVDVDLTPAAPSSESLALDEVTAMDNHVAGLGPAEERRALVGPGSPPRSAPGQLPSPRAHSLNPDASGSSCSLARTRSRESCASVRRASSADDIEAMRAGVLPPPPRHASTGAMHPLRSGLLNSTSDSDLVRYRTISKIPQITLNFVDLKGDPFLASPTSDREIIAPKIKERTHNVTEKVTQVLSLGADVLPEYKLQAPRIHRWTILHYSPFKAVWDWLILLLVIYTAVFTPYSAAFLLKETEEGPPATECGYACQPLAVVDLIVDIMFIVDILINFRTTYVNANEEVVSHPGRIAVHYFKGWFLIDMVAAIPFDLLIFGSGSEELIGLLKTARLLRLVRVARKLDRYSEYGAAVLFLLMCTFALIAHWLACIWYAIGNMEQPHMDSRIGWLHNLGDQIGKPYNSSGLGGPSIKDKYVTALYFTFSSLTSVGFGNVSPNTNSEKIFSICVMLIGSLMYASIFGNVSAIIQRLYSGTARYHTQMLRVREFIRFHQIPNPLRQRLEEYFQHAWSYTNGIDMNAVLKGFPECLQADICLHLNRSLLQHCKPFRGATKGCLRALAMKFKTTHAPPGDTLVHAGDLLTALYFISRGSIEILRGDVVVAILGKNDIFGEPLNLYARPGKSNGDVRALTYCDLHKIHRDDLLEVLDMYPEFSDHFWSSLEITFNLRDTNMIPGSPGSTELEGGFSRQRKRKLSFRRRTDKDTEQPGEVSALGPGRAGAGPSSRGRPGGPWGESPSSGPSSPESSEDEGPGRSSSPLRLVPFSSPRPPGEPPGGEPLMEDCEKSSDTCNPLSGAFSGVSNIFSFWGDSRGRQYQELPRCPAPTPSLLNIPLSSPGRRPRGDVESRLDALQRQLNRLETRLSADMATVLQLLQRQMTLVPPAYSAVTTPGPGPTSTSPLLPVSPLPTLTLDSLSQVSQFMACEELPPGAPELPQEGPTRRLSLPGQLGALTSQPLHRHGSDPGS
Text: To assess the effect of a large set of SCRAs on hERG (see SI Table I and SI Fig. S1 for a list of the 36 included SCRAs and corresponding structures), we used the automated planar patch-clamp (APC) technique on mammalian Chinese hamster ovary (CHO) cells stably expressing human hERG. […] We employed a voltage-ladder protocol to obtain information on SCRA effects on the channel’s voltage dependence of activation (V50) and maximal conductance (Gmax) (both determined from Boltzmann fits of the instantaneous tail currents; see Methods for details).
Stably expressing cell lines “CHO-hERG DUO” (here referred to as hERG; gene: KCNH2) and “CHO-KVLQT1/mink” (here referred to as KV7.1/KCNE1; gene: KCNQ1/KCNE1), (B’SYS GmBH, Witterswil, Switzerland) were used to study whole-cell K^+ currents on a QPatch II 48 APC system (Sophion Bioscience A/S, Ballerup, Denmark). Cell culture and passaging were performed in accordance with standard operating procedures. Cells were harvested in serum-free medium with Detachin^TM (Genlantis, CA, USA) immediately prior to experiments. For MPC on transient cell lines, CHO-K1 CCL-61 cells (ATCC, Manassas, VA, USA) were cultured in Ham’s F-12 medium supplemented with 10% fetal bovine serum (FBS) and 100 U/mL penicillin–100 µg/mL streptomycin (Gibco, Thermo Fisher Scientific, Waltham, MA, USA). Transfection was carried out using JetOPTIMUS® reagent (Polyplus, Strasbourg, France) according to the manufacturer’s protocol. Briefly, 80,000 cells were seeded per well in a 12-well plate and transfected with 300 ng of pcDNA3-GFP plasmid, 700 ng of pcDNA3-hERG plasmid with either the wild-type or mutant channels (S624A, S649A, or Y652A), and […] of JetOPTIMUS. After 8 h, cells were detached and reseeded at a density of 30,000 cells per well onto several poly-D-lysine-coated glass coverslips placed in a 12-well plate. For the CB1 receptor activity assay, the AequoScreen® recombinant Chinese hamster ovary (CHO) K1 cell line, stably expressing the human CB1 receptor (ES-110-A), was used (Revvity, Sollentuna, Sweden).
Automated patch-clamp recordings were performed at 22 °C. Freshly harvested cell suspensions (2–3 million cells/mL) were prepared for experiments by the QPatch II 48 automated cell preparation unit. Cells were centrifuged for 150 s at 150 × g and washed twice with the extracellular recording solution. Cells were handled by the integrated pipetting robot and added to the 48 experiment sites on the planar patch-clamp consumable QPlate. Each experiment site contained an individual pair of recording electrodes and a silicon/glass biochip embedded in the flow channels. Single-cell patch recordings (n = 1 is defined as one single-cell patch) and population patch recordings (up to 10 cells per well, n = 1 is defined as one population patch) were performed for hERG and for KV7.1/KCNE1, respectively. Cells were applied, positioned and sealed to the patch holes by a mild suction protocol; whole-cell access was then achieved by a stronger suction pulse.
The intracellular solution contained (in mM): 100 KCl, 4.3 CaCl2, 1.4 MgCl2, 25/10 KOH/EGTA, 24 KF, 10 HEPES, and 4 Mg-ATP (hERG) or 4 Na-ATP (KV7.1/KCNE1). […] The compounds were pre-diluted in DMSO, and the final concentration of DMSO (0.3%) was equal in all recording solutions to control for vehicle effects. The compounds made no contact with plastics following dilution in extracellular solution.
An overview of experimental conditions is provided in SI Table VII, Square voltage pulses in a voltage ladder protocol were used to study current/voltage (I(V)) relationships. Each voltage protocol was first run three times in the presence of vehicle (extracellular solution supplemented with 0.3% DMSO), the 3rd serving as the baseline. Voltage protocols were repeated in the presence of 4 cumulatively rising concentrations of test compound, followed by application of vehicle for recovery.

KV7.1/KCNE1 = KV7.1/KCNE1 (Homo sapiens, UniProt P51787); assay: Automated patch-clamp (APC, population patch), CHO cells stably expressing human KV7.1/KCNE1; assay type: cell-based; conditions: for KV7.1/KCNE1 channel Efficacy (max reduction in Gmax) Gmin: 1 = no reduction of Gmax, 0 = complete reduction; for KV7.1/KCNE1 channel Efficacy (max reduction in Gmax) Gmin, marked *: * Greatest efficacy achieved with a concentration between 10 and 30 µM (no fit)
KV7.1/KCNE1, sequence (P51787 whole entry): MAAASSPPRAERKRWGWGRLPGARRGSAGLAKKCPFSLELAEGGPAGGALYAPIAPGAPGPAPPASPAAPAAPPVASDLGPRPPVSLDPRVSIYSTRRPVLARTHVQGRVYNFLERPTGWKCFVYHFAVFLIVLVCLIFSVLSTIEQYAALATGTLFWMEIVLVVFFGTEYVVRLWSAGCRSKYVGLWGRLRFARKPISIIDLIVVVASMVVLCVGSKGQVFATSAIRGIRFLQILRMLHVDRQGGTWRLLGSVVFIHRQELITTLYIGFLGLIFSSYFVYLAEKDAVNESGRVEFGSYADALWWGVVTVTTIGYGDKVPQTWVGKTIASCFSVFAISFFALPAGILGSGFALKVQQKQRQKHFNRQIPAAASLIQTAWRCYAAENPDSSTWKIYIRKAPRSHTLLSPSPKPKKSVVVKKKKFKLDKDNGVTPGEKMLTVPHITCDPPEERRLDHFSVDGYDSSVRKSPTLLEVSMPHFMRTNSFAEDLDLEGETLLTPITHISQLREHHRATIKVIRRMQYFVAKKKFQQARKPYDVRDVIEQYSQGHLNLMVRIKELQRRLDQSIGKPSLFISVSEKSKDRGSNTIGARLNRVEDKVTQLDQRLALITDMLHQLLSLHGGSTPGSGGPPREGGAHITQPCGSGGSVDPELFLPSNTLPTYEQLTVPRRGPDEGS
Method: Both hERG and KV7.1/KCNE1 contribute to cardiomyocyte repolarization (Fig. 1g). Inhibition of KV7.1/KCNE1 alone can be proarrhythmic. Moreover, under conditions with impaired hERG function, upregulation of KV7.1/KCNE1 has been proposed to partially compensate for the loss of hERG [38, 39]. […] To assess if SCRAs also affect KV7.1/KCNE1, we used mammalian CHO cells stably expressing human KV7.1/KCNE1. […] At 10 µM, 7 of the SCRAs caused a significant positive shift in V50 (Fig. 5e), with the largest shift induced by MDMB-[…] (ΔV50 = +10.3 ± 1.6 mV).
Automated patch-clamp recordings were performed at 22 °C.
For the KV7.1/KCNE1 voltage ladder protocol (SI Table VII) the solutions were present for 60 s before recording started. KV7.1/KCNE1 cells were kept at a holding voltage of −90 mV, with brief hyperpolarizing steps to −100 mV for 540 ms (to calculate ohmic leakage). […] The time between compound application and the first voltage protocol was 60 s. Time between sweeps was 15 s. The voltage ladder protocol was executed every 220 s.
For Gmax (rel.), N was set to –1. For ΔV50, N was set to 1.

human CB1 receptor = molecular target: T1, human CB1 receptor (Homo sapiens, UniProt P21554); assay: AequoScreen intracellular calcium release assay, CHO-K1 cells stably expressing CB1; assay type: cell-based
T1 construct: host or cells: CHO-K1 stably expressing CB1, apoaequorin and Gα16
T1 sequence (P21554 whole entry): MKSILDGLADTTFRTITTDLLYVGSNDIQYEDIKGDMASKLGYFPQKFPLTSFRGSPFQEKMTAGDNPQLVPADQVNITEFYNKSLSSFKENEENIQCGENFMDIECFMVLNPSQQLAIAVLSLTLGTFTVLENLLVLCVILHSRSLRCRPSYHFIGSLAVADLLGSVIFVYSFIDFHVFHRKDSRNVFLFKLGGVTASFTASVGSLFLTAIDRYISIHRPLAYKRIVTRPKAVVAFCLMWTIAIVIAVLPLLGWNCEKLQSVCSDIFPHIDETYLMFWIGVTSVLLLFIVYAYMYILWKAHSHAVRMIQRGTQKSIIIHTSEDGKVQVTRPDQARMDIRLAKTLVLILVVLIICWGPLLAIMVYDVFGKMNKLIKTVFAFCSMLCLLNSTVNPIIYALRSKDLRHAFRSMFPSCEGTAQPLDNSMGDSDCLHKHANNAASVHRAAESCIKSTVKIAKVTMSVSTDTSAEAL

[1] = APC, best fit, read-out: KV7.1/KCNE1 channel Potency IC50 (Gmax reduction)
[2] = normalized to maximum of JWH-018, n ≥ 3 (JWH-030 n = 2)
[3] = normalized to median EC50 of JWH-018, n ≥ 3 (JWH-030 n = 2), read-out: CB1 receptor Potency EC50
[4] = CB1 receptor Potency EC50, normalized to median EC50 of JWH-018, n ≥ 3 (JWH-030 n = 2)
[5] = best fit, 1 = no reduction of Gmax, APC, 22 °C
[6] = read-out: hERG channel Potency IC50 (Gmax reduction), APC, 22 °C, best fit
[7] = experimentally observed effect of 10 µM, used in ORd simulation

Row | Compound | KV7.1/KCNE1 channel Efficacy (max reduction in Gmax) Gmin (KV7.1/KCNE1; best fit) | CB1 receptor Efficacy Emax (human CB1 receptor; [2]) [% JWH-018] | pEC50 (human CB1 receptor; [3]) | KV7.1/KCNE1 channel Efficacy (max reduction in Gmax) Gmin, marked * (KV7.1/KCNE1) | hERG channel Efficacy (max reduction in Gmax) Gmin (hERG (KV11.1); [5]) | pIC50 (hERG (KV11.1); [6]) | further results
1 | CCCCCCN1C(=O)C(=NNC(=O)c2ccccc2)c2ccccc21 [BZO-HEXOXIZID] | 0.44 | 84.3 | 5.29 |  |  |  | hERG channel Efficacy (max reduction in Gmax) Gmin, marked ? (hERG (KV11.1); ? Unreliable values (fit failed QC, extrapolated)): 0.00; pIC50 (KV7.1/KCNE1; [1]): 5.52; CB1 EC50 (in words) (human CB1 receptor): low micromolar
2 | CCCCCn1cc(C(=O)C2C(C)(C)C2(C)C)c2ccccc21 [UR-144] |  | 101 |  | 0.92 |  |  | hERG channel Efficacy (max reduction in Gmax) Gmin, marked * (hERG (KV11.1); * Greatest efficacy achieved with a concentration between 10 and 30 µM (no fit), 1 = no reduction of Gmax): 0.94; effect on Gmax of hERG (in words) (hERG (KV11.1)): non-inhibitor; pEC50 (human CB1 receptor; [4]): 6.38
3 | CC(C)[C@H](NC(=O)c1cn(CC2CCCCC2)c2ccccc12)C(N)=O [AB-CHMICA] | 0.46 | 110 | 7.70 |  | 0.64 | 5.09 | pIC50 (KV7.1/KCNE1; [1]): 4.79
4 | COC(=O)[C@@H](NC(=O)c1n[nH]c2ccc(Br)cc12)C(C)(C)C [MDMB-5'Br-INACA] |  | 110 | 6.07 | 0.74 | 0.57 | 4.60 | 
5 | COC(=O)[C@@H](NC(=O)c1cn(CC2CCCCC2)c2ccccc12)C(C)C [MMB-CHMICA] | 0.83 | 109 | 8.06 |  | 0.75 | 5.59 | 
6 | CCCCn1nc(C(=O)NC(C(N)=O)C(C)(C)C)c2cc(Br)ccc21 (stereo not drawn) [ADB-5'Br-BUTINACA] |  | 110 | 7.74 | 0.80 | 0.36 | 4.40 | 
7 | CC(C)[C@H](NC(=O)c1nn(Cc2ccc(F)cc2)c2ccccc12)C(N)=O [AB-FUBINACA] | 0.15 | 108 | 8.05 |  | 0.00 | 4.52 | pIC50 (KV7.1/KCNE1; [1]): 4.39
8 | CCCCCCn1nc(C(=O)NC(C(N)=O)C(C)(C)C)c2ccccc21 (stereo not drawn) [ADB-HEXINACA] | 0.41 | 117 |  |  | 0.037 |  | pIC50 (hERG (KV11.1)): 4.80; remaining IKr (hERG Gmax) (hERG (KV11.1); [7]): 63%; pIC50 (KV7.1/KCNE1): 5.70; remaining IKs (KV7.1/KCNE1 Gmax) (KV7.1/KCNE1; [7]): 52%; pEC50 (human CB1 receptor; [4]): 7.40
9 | C=CCCCn1nc(C(=O)N[C@H](C(=O)OC)C(C)(C)C)c2ccccc21 [MDMB-4en-PINACA] |  | 109 | 7.78 | 0.57 | 0.27 | 4.84 | 
10 | C=CCCCn1nc(C(=O)NC(C(N)=O)C(C)(C)C)c2ccccc21 (stereo not drawn) [ADB-4en-PINACA] |  | 117 | 7.76 | 1.13 | 0.52 | 5.04 | effect on Gmax of hERG (in words) (hERG (KV11.1)): no or limited effects
11 | CC(C)(C)[C@H](NC(=O)c1nn(Cc2ccc(F)cc2)c2ccccc12)C(N)=O [ADB-FUBINACA] |  | 106 | 8.30 | 0.81 | 0.25 | 4.86 | 
12 | COC(=O)[C@@H](NC(=O)c1nn(Cc2ccc(F)cc2)c2ccccc12)C(C)(C)C [MDMB-FUBINACA] |  | 103 | 9.10 | 0.59 | 0.25 | 4.99 | CB1 EC50 (in words) (human CB1 receptor): sub-nanomolar
13 | CC(C)[C@H](NC(=O)c1nn(CC2CCCCC2)c2ccccc12)C(N)=O |  |  |  | 0.72 | 0.00 | 4.29 | CB1 receptor Efficacy Emax (human CB1 receptor): 108 % JWH-018; pEC50 (human CB1 receptor; read-out: CB1 receptor Potency EC50): 8.05
14 | CC(C)(C)C(NC(=O)c1cn(CC2CCCCC2)c2ccccc12)C(N)=O (stereo not drawn) [ADB-CHMICA] | 0.4 | 110 | 7.80 |  | 0.48 | 5.28 | pIC50 (KV7.1/KCNE1; [1]): 4.87
15 | CCCCn1nc(C(=O)NC(C(=O)OC)C(C)(C)C)c2cc(Br)ccc21 (stereo not drawn) [MDMB-5'Br-BUTINACA] |  | 114 |  | 0.60 | 0.67 |  | pIC50 (hERG (KV11.1)): 5.21; effect on KV7.1/KCNE1 (in words) (KV7.1/KCNE1; APC): both reduced Gmax and shifted V50 towards more positive voltages
